Measured values as given in US20030198696A1, “Pesticide composition of plant oils and fish oils” (priority 2000, published 2003).

Test system: citrus greasy spot
Assay: Test for citrus greasy spot control
Type: in vivo
Settings: treatment amounts as printed in 250 gallons of water per acre, untreated control 0.510
Source text: Test for citrus greasy spot control. Treatments consisted of the following amounts of compounds in 250 gallons of water per acre: […]

Copper
Disease Incidence: 0.050
